Measured values reported in ChEMBL document CHEMBL3046831, “Novel PCU cage diol peptides as potential targets against wild-type CSA HIV-1 protease: synthesis, biological screening and molecular modelling studies” (Med Chem Res, 2013).

The molecules below were run against T1, Protease (Human immunodeficiency virus 1, UniProt Q9YQ12) (assay: Inhibition of wild type C-South African Human immunodeficiency virus 1 protease using chromogenic peptide H-1048 as substrate by UV spectrophotometric analysis).
Design: species or system C-SA

T1 sequence (Q9YQ12 whole entry): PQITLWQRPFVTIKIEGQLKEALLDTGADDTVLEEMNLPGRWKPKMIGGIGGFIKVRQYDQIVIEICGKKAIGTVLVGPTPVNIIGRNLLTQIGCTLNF

IC50 [µM]	Structure (SMILES)
> 60	NC(=O)[C@@H]1CCCN1C(=O)CC1(O)C2C3CC4C5C3C1C5C(O)(CC(=O)N1CCC[C@H]1C(N)=O)C42 (some centres not stated)
5	O=C(CC1(O)C2C3CC4C5C3C1C5C(O)(CC(=O)N[C@H](C(=O)O)c1ccccc1)C42)N[C@H](C(=O)O)c1ccccc1 (some centres not stated)
> 60	O=C(O)CN(Cc1ccccc1)C(=O)CC1(O)C2C3CC4C5C3C1C5C(O)(CC(=O)N(CC(=O)O)Cc1ccccc1)C42 (configuration not stated)
> 60	O=C(CC1(O)C2C3CC4C5C3C1C5C(O)(CC(=O)N[C@@H](Cc1ccccc1)C(=O)O)C42)N[C@@H](Cc1ccccc1)C(=O)O (some centres not stated)
> 60	O=C(O)[C@@H]1CCCN1C(=O)CC1(O)C2C3CC4C5C3C1C5C(O)(CC(=O)N1CCC[C@H]1C(=O)O)C42 (some centres not stated)
5	O=C(CC1(O)C2C3CC4C5C3C1C5C(O)(CC(=O)N[C@@H](Cc1c[nH]c3ccccc13)C(=O)O)C42)N[C@@H](Cc1c[nH]c2ccccc12)C(=O)O (some centres not stated)
10	CC(C)[C@H](NC(=O)CC1(O)C2C3CC4C5C3C1C5C(O)(CC(=O)N[C@H](C(=O)O)C(C)C)C42)C(=O)O (some centres not stated)
10	O=C(CC1(O)C2C3CC4C5C3C1C5C(O)(CC(=O)N[C@@H](Cc1ccc(O)cc1)C(=O)O)C42)N[C@@H](Cc1ccc(O)cc1)C(=O)O (some centres not stated)
> 60	O=C(CC1(O)C2C3CC4C5C3C1C5C(O)(CC(=O)N[C@@H](Cc1c[nH]cn1)C(=O)O)C42)N[C@@H](Cc1c[nH]cn1)C(=O)O (some centres not stated)

What follows are molecules tested against T1, Protease (assay: Inhibition of Human immunodeficiency virus 1 protease).

Ki [µM]	Structure (SMILES)
0.0003	Nc1cccc(CN2C(=O)N(Cc3cccc(N)c3)[C@H](Cc3ccccc3)[C@H](O)[C@@H](O)[C@H]2Cc2ccccc2)c1 [MOZENAVIR]

The molecules below were run against T1, Protease (assay: Inhibition of wild type C-South African Human immunodeficiency virus 1 protease).
Design: species or system C-SA

IC50 [µM]	Structure (SMILES)
0.6	CC(C)[C@H](NC12OC3(O)C4C5CC(C6C5C3C61)C42)C(=O)N[C@@H](C)C(=O)O (some centres not stated)
0.078	CC[C@H](C)[C@H](NC(=O)[C@H](C)NC(=O)[C@H](CCC(=O)O)NC12NC(=O)C3(O)C4C5CC(C6C5C3C61)C42)C(=O)N[C@@H](CO)C(=O)O (some centres not stated)
